pIC50: −log10 of the molar value.
Assays:
HBV DNA replication = assay: Inhibition experiment on HBV virus replication (HepG 2,2,15 cells, supernatant HBV DNA by qPCR); assay type: cell-based; details: Hepatitis B virus, HepG2.2.15, 10 days treatment, supernatant HBV DNA on day 11
Text: (§1) The chromosomal integration of HepG2,2,15 cells (SELLS, PNAS, 1987 and SELLS, JV, 1988) has a complete HBV genome and stably expresses viral RNA and viral proteins. HepG2,2,15 cells are capable of secreting mature hepatitis B virus particles and HBsAg into the culture medium. Virus particles DNA and HBsAg secreted by HepG 2,2,15 cells can be quantified by qPCR and ELISA, and the effects of compounds on viral replication and HBsAg secretion can be detected.
(§2) HepG 2,2,15 cells were inoculated with 8,000 per cell to 96-well cell culture plates in duplicate, and were cultured for 3 days until the cells grew to full-hole. Cells were treated with 4-fold serial dilutions of compounds for 10 days, and were given once every other day. The final concentration of DMSO in all pores was 0.5% and DMSO was used as a drug-free control. The supernatant was collected for quantitative detection of HBV DNA on day 11.
Viral genomic DNA was detected by qPCR method, and HBV primers were as follows: […]
The SYBR Premix Ex Taq D-Takara DRR081S kit was used, and 1 μL of cell culture supernatant was used as a template. A standard curve was made using a plasmid containing the HBV genome, and the viral copy number was calculated using the standard curve. Concentration-virus copy number was processed using Graphpad Prism 5 software, and IC50 of compounds inhibiting virus replication was calculated by four-parameter nonlinear regression model.

HBsAg secretion = assay: Inhibition experiment on HBsAg secretion (HepG 2,2,15 cells, ELISA); assay type: cell-based; details: Hepatitis B virus, HepG2.2.15, read-out: HBsAg IC50
Text: as §1
as §2, with “HBsAg” for “HBV DNA”
The level of HBsAg secreted by the cells after treatment of the compound was detected by ELISA method, and the method used a hepatitis B surface antigen diagnostic kit (Shanghai Kehua Biotech Co., Ltd. S10910113). 25 μL of the supernatant to be assayed (PBS was diluted to 75 μL) was added to per well in the ELISA plate, and the kit positive control and negative control were set. The ELIS A plate was blocked with a cover paper and incubated at 37° C. for 60 minutes. The ELISA plate was taken out, and the cover paper was teared off, and 50 μL of enzyme conjugate was added to each well. The ELISA plate was oscillated on the shaker for 10 seconds, blocked with a cover paper and incubated at 37° C. for 30 minutes. The ELISA plate was taken out, the cover paper was teared off, and the ELISA plate was washed 5 times: each time the liquid in the hole was discarded, and the washing liquid was filled into the holes, left to stand for 60 seconds, dried, and the liquid residue was patted to dry on the absorbent paper. A freshly prepared mixture of Developer A and Developer B was added to all wells immediately after washing: 100 μL per well. The ELISA plate was oscillated on the shaker for 10 seconds, blocked with a cover paper and incubated at 37° C. for 30 minutes. 50 μL of stop solution was added to all wells. Absorbance was read on the Envision plate reader at a wavelength of 450 nm.
Concentration-HBsAg OD450 was processed using Graphpad Prism 5 software, and IC50 of compounds inhibiting against HBsAg secretion was calculated by four-parameter nonlinear regression model.

[1] = PK test experiments in SD rats; assay type: in vivo; parameters: VSS: unit not given here; details: for AUC(0-inf) / AUC(0-t) / Cmax / clearance: male, rat, plasma
Protocol: (§3) The PK test in vivo of the compound of the present invention in SD rats (body weight 200-250 g, male, age 2-3 months, 3 per group with oral administration, 3 per group with intravenous injection) The SD rat was administered orally with 2.5 mg/kg or 5 mg/kg of the compound tested or intravenously injected with 0.5 mg/kg or 1 mg/kg of the compound tested. After administration, venous blood was collected at time points (0.083, 0.25, 0.5, 1, 2, 5, 7 and 24 hours) and collected in an anticoagulation tube to which EDTA-K2 was added. Plasma samples were extracted by liquid-liquid extraction and quantitatively analyzed by multiple reaction ion monitoring (MRM) on a triple quadrupole tandem mass spectrometer. Pharmacokinetic parameters were calculated using a noncompartmental method by WinNonLin 6.3 software.

[2] = PK test experiments in beagle dogs; assay type: in vivo
Protocol: as §3, with “beagle dogs” for “SD rats”, “10-12 kg,” for “200-250 g,”, “10-12” for “2-3”, “beagle dog” for “SD rat”, “administered orally with 2.5 mg/kg or 5 mg/kg of the compound tested or intravenously injected with 0.5 mg/kg or 1 mg/kg of the compound tested.” left out, “4, 6, 8” for “5, 7”

[3] = male, dog, plasma, IV, 0.5 mg/kg
[4] = male, dog, plasma, PO, 2.5 mg/kg

## COCCCOc1cc2c(c3c1OCC3)-c1cc(=O)c(C(=O)O)cn1C(C(C)C)C2 (centres unmarked) [Example 2, 7-Isopropyl-4-(3-methoxypropoxy)-11-oxo-2,6,7,11-tetrahydro-1H-furo[2,3-h]pyrido[2,1-a]isoquinoline-10-carboxylic Acid]
HBV DNA replication
  pIC50: 8.92
HBsAg secretion
  pIC50: 8.84
[1]; IV, 1 mg/kg
  VSS: 1.8
  AUC(0-inf): 1330 ng·h/mL
  AUC(0-t): 1210 ng·h/mL
  Cmax: 738 ng/mL
  clearance: 12.6 mL/min/kg
[1]; PO, 5 mg/kg
  F: 174.5%
  AUC(0-inf): 10600 ng·h/mL
  AUC(0-t): 10600 ng·h/mL
  Cmax: 1860 ng/mL

## CC(C)C1Cc2cc(OCCC3CC3)c3c(c2-c2cc(=O)c(C(=O)O)cn21)CCO3 (centres unmarked) [Example 3, 4-(2-Cyclopropylethoxy)-7-isopropyl-11-oxo-2,6,7,11-tetrahydro-1H-furo[2,3-h]pyrido[2,1-a]isoquinoline-10-carboxylic Acid]
HBV DNA replication
  pIC50: 8.80
HBsAg secretion
  pIC50: 8.85
[1]; IV, 1 mg/kg
  VSS: 1.5
  AUC(0-inf): 1760 ng·h/mL
  AUC(0-t): 1630 ng·h/mL
  Cmax: 744 ng/mL
  clearance: 9.45 mL/min/kg
[1]; PO, 5 mg/kg
  F: 167.4%
  AUC(0-inf): 14800 ng·h/mL
  AUC(0-t): 14700 ng·h/mL
  Cmax: 1810 ng/mL

## CC(C)C1Cc2cc(-c3cnn(C(C)C)c3)c3c(c2-c2cc(=O)c(C(=O)O)cn21)CCO3 (centres unmarked) [Example 9, 7-Isopropyl-4-(1-isopropyl-1H-pyrazol-4-yl)-11-oxo-2,6,7,11-tetrahydro-1H-furo[2,3-h]pyrido[2,1-a]isoquinoline-10-carboxylic Acid]
HBV DNA replication
  pIC50: 8.96
HBsAg secretion
  pIC50: 8.55
[1]; IV, 1 mg/kg
  VSS: 2.2
  AUC(0-inf): 1190 ng·h/mL
  AUC(0-t): 1180 ng·h/mL
  Cmax: 641 ng/mL
  clearance: 14 mL/min/kg
[1]; PO, 5 mg/kg
  F: 94%
  AUC(0-inf): 5590 ng·h/mL
  AUC(0-t): 5560 ng·h/mL
  Cmax: 1630 ng/mL

## CC1(C)CCC2c3cc(OCCC4CC4)c4c(c3-c3cc(=O)c(C(=O)O)cn3N21)CCO4 (centres unmarked) [Example 13, 5-(2-Cyclopropylethoxy)-1,1-dimethyl-10-oxo-2,3,3a,7,8,10-hexahydro-1H-furo[3,2-f]pyrido[1,2-c]pyrrolo[2,1-a]phthalazine-11-carboxylic Acid]
HBV DNA replication
  pIC50: > 9.62
HBsAg secretion
  pIC50: 9.47
[1]; IV, 1 mg/kg
  VSS: 1.4
  AUC(0-inf): 2860 ng·h/mL
  AUC(0-t): 2830 ng·h/mL
  Cmax: 1000 ng/mL
  clearance: 5.84 mL/min/kg
[1]; PO, 5 mg/kg
  F: 129%
  AUC(0-inf): 18400 ng·h/mL
  AUC(0-t): 18300 ng·h/mL
  Cmax: 1700 ng/mL

## CC(C)N1Cc2cc(-c3cnn(C(C)C)c3)c3c(c2-c2cc(=O)c(C(=O)O)cn21)CCO3 [Example 17, 7-Isopropyl-4-(1-isopropyl-11-pyrazol-4-yl)-11-oxo-2,6,7,11-tetrahydro-1H-furo[2,3-h]pyrido[2,1-a]phthalazine-10-carboxylic Acid]
HBV DNA replication
  pIC50: 8.82
HBsAg secretion
  pIC50: 8.49
[1]; IV, 1 mg/kg
  VSS: 1.01
  AUC(0-inf): 1640 ng·h/mL
  AUC(0-t): 1610 ng·h/mL
  Cmax: 932 ng/mL
  clearance: 10.1 mL/min/kg
[1]; PO, 5 mg/kg
  F: 130.6%
  AUC(0-inf): 10700 ng·h/mL
  AUC(0-t): 10700 ng·h/mL
  Cmax: 1620 ng/mL

## CC(C)C1Cc2cc(C#CC3CC3)c3c(c2-c2cc(=O)c(C(=O)O)cn21)CCO3 (centres unmarked) [Example 31, 4-(Cyclopropylethynyl)-7-isopropyl-11-oxo-2,6,7,11-tetrahydro-1H-furo [2,3-h]pyrido[2,1-a]isoquinoline-10-carboxylic Acid]
HBV DNA replication
  pIC50: 9.14
HBsAg secretion
  pIC50: 8.86

## CC(C)C1Cc2cc(-c3cnn(C4CCC4)c3)c3c(c2-c2cc(=O)c(C(=O)O)cn21)CCO3 (centres unmarked) [Example 33, 4-(1-Cyclobutyl-1H-pyrazol-4-yl)-7-isopropyl-11-oxo-2,6,7,11-tetrahydro-1H-furo[2,3-h]pyrido[2,1-a]isoquinoline-10-carboxylic Acid]
HBV DNA replication
  pIC50: 8.91
HBsAg secretion
  pIC50: 8.87

## CC(C)C1Cc2cc(-c3cnn(C4CCOCC4)c3)c3c(c2-c2cc(=O)c(C(=O)O)cn21)CCO3 (centres unmarked) [Example 34, 7-Isopropyl-11-oxo-4-(1-(tetrahydro-2H-pyran-4-yl)-1H-pyrazol-4-yl)-2,6,7,11-tetrahydro-1H-furo[2,3-h]pyrido[2,1-a]isoquinoline-10-carboxylic Acid]
HBV DNA replication
  pIC50: 8.43
HBsAg secretion
  pIC50: 8.63

## CC(C)C1Cc2cc(-c3cnn(C4COC4)c3)c3c(c2-c2cc(=O)c(C(=O)O)cn21)CCO3 (centres unmarked) [Example 35, 7-Isopropyl-4-(1-(oxetan-3-yl)-1H-pyrazol-4-yl)-11-oxo-2,6,7,11-tetra hydro-1H-furo[2,3-h]pyrido[2,1-a]isoquinoline-10-carboxylic Acid]
HBV DNA replication
  pIC50: 8.63
HBsAg secretion
  pIC50: 8.48

## COCCCOc1cc2c(c3c1OC(C)(C)C3)-c1cc(=O)c(C(=O)O)cn1C(C(C)C)C2 (centres unmarked) [Example 39, 7-Isopropyl-4-(3-methoxypropoxy)-2,2-dimethyl-11-oxo-2,6,7,11-tetrahydro-1H-furo[2,3h]pyrido[2,1-a]isoquinoline-10-carboxylic Acid]
HBV DNA replication
  pIC50: 8.78
HBsAg secretion
  pIC50: 9.04

## CC(C)C1Cc2cc(OCCC3CC3)c3c(c2-c2cc(=O)c(C(=O)O)cn21)CC(C)(C)O3 (centres unmarked) [Example 40, 4-(2-Cyclopropylethoxy)-7-isopropyl-2,2-dimethyl-11-oxo-2,6,7,11-tetrahydro-1H-furo[2,3-h]pyrido[2,1-a]isoquinoline-10-carboxylic Acid]
HBV DNA replication
  pIC50: 8.84
HBsAg secretion
  pIC50: 9.27

## CC(C)C1Cc2cc(-c3cnn(C(F)F)c3)c3c(c2-c2cc(=O)c(C(=O)O)cn21)CC(C)(C)O3 (centres unmarked) [Example 41, 4-(1-(Difluoromethyl)-1H-pyrazol-4-yl)-7-isopropyl-2,2-dimethyl-11-oxo-2,6,7,11-tetrahydro-1H-furo[2,3-h]pyrido[2,1-a]isoquinoline-10-carboxylic Acid]
HBV DNA replication
  pIC50: 8.68
HBsAg secretion
  pIC50: 9.27

## CC(C)N1Cc2cc(-c3cnn(C(F)F)c3)c3c(c2-c2cc(=O)c(C(=O)O)cn21)CCO3 [Example 43, 4-(1-(Difluoromethyl)-1H-pyrazol-4-yl)-7-isopropyl-11-oxo-2,6,7,11-tetrahydro-1H-furo[2,3-h]pyrido[2,1-a]phthalazine-10-carboxylic Acid]
HBV DNA replication
  pIC50: 8.73
HBsAg secretion
  pIC50: 9.01
[2]; IV, 0.5 mg/kg
  VSS: 0.48 kg⁻¹
[2]; PO, 2.5 mg/kg
  F: 100.7%
[2]; [3]
  AUC(0-inf): 9990 ng·h/mL
  AUC(0-t): 9030 ng·h/mL
  Cmax: 1080 ng/mL
  clearance: 0.83 mL/min/kg
[2]; [4]
  AUC(0-inf): 49300 ng·h/mL
  AUC(0-t): 45500 ng·h/mL
  Cmax: 5770 ng/mL
